Experimental data from the supplement of paper PMC11451515.

Columns and labels:
Settings in all cases: 48 h
SEM cells [1] = assay: cell viability relative to DMSO control; higher = less cytotoxic
Outline: (§1)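 NOMO1, SEM and P12-Ichikawa leukemia cells spent at least four passages adapting to each medium before use. They were seeded at 500 cells/well (NOMO1, SEM) or 1000 cells/well (P12-Ichikawa) in 5 μl in 1536-well plates and pin-dosed with library compounds in DMSO at 11 threefold steps from 47 μM down to 0.79 nM. After 48 h at 37°C, CellTiter-Glo One luminescence was read. Viability is reported as a percentage of the DMSO wells on each plate, with cell-free wells as background.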

NOMO1 [2] = assay: AUC of viability dose-response curve (% viability x log10 dose units); higher = less sensitive
Outline: (§2)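 Medium-adapted leukemia cells in 1536-well plates, at 500 or 1000 cells/well, were incubated for 48 h at 37°C with library compounds in DMSO at 11 threefold doses from 47 μM to 0.79 nM. CellTiter-Glo One luminescence normalised per plate to DMSO and cell-free wells was fitted with a four-parameter log-logistic model over log10 doses. Area under the curve was integrated from this fit by trapezoidal rule, with curves beyond full viability scaled and failed quality-control curves removed.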

SEM cells [3] = assay: as above
Outline: as §2

P12-Ichikawa [4] = assay: as above
Outline: as §2

NOMO1 [5] = assay: cell viability relative to DMSO control; higher = less cytotoxic
Outline: as §1

P12-Ichikawa [6] = assay: as above
Outline: as §1

C[C@]\12CCC(=O)\C=C1[C@@H]3C[C@@H]3[C@@H]4[C@@H]2CC[C@@]5(C)[C@H]4[C@@H]6C[C@@H]6[C@@]57CCC(=O)O7
cell viability [%], SEM cells [1]
Settings | HPLM + 10% dialyzed FBS | RPMI 5 mM glucose + 10% FBS
0.000781 µM | 89.1 | 98.6
0.00234 µM | 97.2 | 111
0.00702 µM | 107 | 115
0.0211 µM | 123 | 117
0.0632 µM | 120 | 137
0.19 µM | 112 | 146
0.569 µM | 106 | 124
1.71 µM | 107 | 134
5.12 µM | 133 | 119
15.4 µM | 107 | 125
46.1 µM | 104 | 146

AUC of viability dose-response curve
Settings | NOMO1 [2] | P12-Ichikawa [4] | SEM cells [3]
HPLM + 10% dialyzed FBS | 469 | 474 | 450
RPMI 5 mM glucose + 10% FBS | 477 | 468 | 451
RPMI 5 mM glucose + 10% dialyzed FBS | 471 | 471 | 468

Nc1ccn([C@H]2CS[C@@H](CO)O2)c(=O)n1
cell viability [%]
Settings | HPLM + 10% dialyzed FBS | RPMI 5 mM glucose + 10% FBS | RPMI 5 mM glucose + 10% dialyzed FBS
NOMO1 [5], 0.000781 µM | – | 112 | –
NOMO1 [5], 0.00234 µM | – | 122 | –
NOMO1 [5], 0.00702 µM | – | 144 | –
NOMO1 [5], 0.0211 µM | – | 133 | –
NOMO1 [5], 0.0632 µM | – | 135 | –
NOMO1 [5], 0.19 µM | – | 138 | –
NOMO1 [5], 0.569 µM | – | 139 | –
NOMO1 [5], 1.71 µM | – | 148 | –
NOMO1 [5], 5.12 µM | – | 133 | –
NOMO1 [5], 15.4 µM | – | 140 | –
NOMO1 [5], 46.1 µM | – | 145 | –
SEM cells [1], 0.000781 µM | 81.2 | 101 | 104
SEM cells [1], 0.00234 µM | 108 | 116 | 136
SEM cells [1], 0.00702 µM | 109 | 108 | 117
SEM cells [1], 0.0211 µM | 122 | 135 | 134
SEM cells [1], 0.0632 µM | 137 | 157 | 144
SEM cells [1], 0.19 µM | 126 | 138 | 138
SEM cells [1], 0.569 µM | 123 | 141 | 139
SEM cells [1], 1.71 µM | 129 | 130 | 135
SEM cells [1], 5.12 µM | 123 | 144 | 138
SEM cells [1], 15.4 µM | 101 | 153 | 110
SEM cells [1], 46.1 µM | 147 | 144 | 135

AUC of viability dose-response curve
Settings | NOMO1 [2] | P12-Ichikawa [4] | SEM cells [3]
HPLM + 10% dialyzed FBS | 459 | 440 | 454
RPMI 5 mM glucose + 10% FBS | 464 | 471 | 445
RPMI 5 mM glucose + 10% dialyzed FBS | 472 | 464 | 470

Cn1ccc2cc3c(cc21)CCN3C(=O)Nc1cccnc1
SEM cells [1], HPLM + 10% dialyzed FBS
Settings | cell viability [%]
0.000781 µM | 100
0.00234 µM | 113
0.00702 µM | 132
0.0211 µM | 116
0.0632 µM | 123
0.19 µM | 158
0.569 µM | 140
1.71 µM | 127
5.12 µM | 125
15.4 µM | 137
46.1 µM | 59.8

AUC of viability dose-response curve
Settings | NOMO1 [2] | P12-Ichikawa [4] | SEM cells [3]
HPLM + 10% dialyzed FBS | 460 | 464 | 464
RPMI 5 mM glucose + 10% FBS | 451 | 462 | 461
RPMI 5 mM glucose + 10% dialyzed FBS | 466 | 463 | 461

Nc1nc(N)c(N=O)c(OCC2CCCCC2)n1
cell viability [%]
Settings | NOMO1 [5] | P12-Ichikawa [6] | SEM cells [1]
HPLM + 10% dialyzed FBS, 0.000781 µM | 89.8 | 89.4 | 71.5
HPLM + 10% dialyzed FBS, 0.00234 µM | 104 | 90.3 | 92.1
HPLM + 10% dialyzed FBS, 0.00702 µM | 90.2 | 88.9 | 54.6
HPLM + 10% dialyzed FBS, 0.0211 µM | 116 | 90.6 | 88.7
HPLM + 10% dialyzed FBS, 0.0632 µM | 94.5 | 97.6 | 91.9
HPLM + 10% dialyzed FBS, 0.19 µM | 99 | 92.2 | 100
HPLM + 10% dialyzed FBS, 0.569 µM | 99.5 | 88.3 | 89.4
HPLM + 10% dialyzed FBS, 1.71 µM | 62.5 | 81.1 | 75.5
HPLM + 10% dialyzed FBS, 5.12 µM | 46.9 | 75.6 | 40.8
HPLM + 10% dialyzed FBS, 15.4 µM | 38.9 | 60.6 | 39
HPLM + 10% dialyzed FBS, 46.1 µM | 23.4 | 40.1 | 28.2
RPMI 5 mM glucose + 10% FBS, 0.000781 µM | 90.3 | 86 | 94.7
RPMI 5 mM glucose + 10% FBS, 0.00234 µM | 90.2 | 87.3 | 84.2
RPMI 5 mM glucose + 10% FBS, 0.00702 µM | 93 | 86.9 | 56.6
RPMI 5 mM glucose + 10% FBS, 0.0211 µM | 93.5 | 93 | 91.4
RPMI 5 mM glucose + 10% FBS, 0.0632 µM | 87.9 | 98.2 | 97.2
RPMI 5 mM glucose + 10% FBS, 0.19 µM | 94 | 95.3 | 93.3
RPMI 5 mM glucose + 10% FBS, 0.569 µM | 91.8 | 84.6 | 96.7
RPMI 5 mM glucose + 10% FBS, 1.71 µM | 76.9 | 78.7 | 74
RPMI 5 mM glucose + 10% FBS, 5.12 µM | 61.6 | 53.8 | 47.8
RPMI 5 mM glucose + 10% FBS, 15.4 µM | 48 | 45 | 38.1
RPMI 5 mM glucose + 10% FBS, 46.1 µM | 28.2 | 34.7 | 27.4
RPMI 5 mM glucose + 10% dialyzed FBS, 0.000781 µM | 76.6 | 84.8 | 81.6
RPMI 5 mM glucose + 10% dialyzed FBS, 0.00234 µM | 91.8 | 89.2 | 86.2
RPMI 5 mM glucose + 10% dialyzed FBS, 0.00702 µM | 78.8 | 85 | 71.4
RPMI 5 mM glucose + 10% dialyzed FBS, 0.0211 µM | 87.9 | 86.9 | 86.8
RPMI 5 mM glucose + 10% dialyzed FBS, 0.0632 µM | 97.9 | 100 | 96
RPMI 5 mM glucose + 10% dialyzed FBS, 0.19 µM | 96.9 | 88.5 | 100
RPMI 5 mM glucose + 10% dialyzed FBS, 0.569 µM | 91.2 | 91.3 | 102
RPMI 5 mM glucose + 10% dialyzed FBS, 1.71 µM | 76.8 | 72.3 | 79
RPMI 5 mM glucose + 10% dialyzed FBS, 5.12 µM | 66.8 | 59 | 56.5
RPMI 5 mM glucose + 10% dialyzed FBS, 15.4 µM | 60.4 | 48.9 | 45.2
RPMI 5 mM glucose + 10% dialyzed FBS, 46.1 µM | 33.8 | 35.9 | 32

AUC of viability dose-response curve
Settings | NOMO1 [2] | P12-Ichikawa [4] | SEM cells [3]
HPLM + 10% dialyzed FBS | 381 | 395 | 340
RPMI 5 mM glucose + 10% FBS | 379 | 372 | 354
RPMI 5 mM glucose + 10% dialyzed FBS | 380 | 371 | 370

CC/1=C(\CCN2CCC(CC2)C3=NOC4=C3C=CC(=C4)F)C(=O)N/5CCCCC5=N1
cell viability [%], HPLM + 10% dialyzed FBS
Settings | P12-Ichikawa [6] | SEM cells [1]
0.000781 µM | 125 | 102
0.00234 µM | 120 | 91.1
0.00702 µM | 122 | 106
0.0211 µM | 118 | 103
0.0632 µM | 130 | 122
0.19 µM | 124 | 124
0.569 µM | 127 | 72.9
1.71 µM | 116 | 45.9
5.12 µM | 126 | 112
15.4 µM | 133 | 115
46.1 µM | 127 | 110

AUC of viability dose-response curve
Settings | NOMO1 [2] | P12-Ichikawa [4] | SEM cells [3]
HPLM + 10% dialyzed FBS | 457 | 463 | 475
RPMI 5 mM glucose + 10% FBS | 477 | 457 | 473
RPMI 5 mM glucose + 10% dialyzed FBS | 472 | 476 | 468
